Measured values taken from patent publication US4303674A, “Substituted decalins, their preparation and use” (Beecham Group Limited, priority 1979, dated 1981).
Entries after “also recorded” stand apart in the source; their conditions may differ.

Tests used:
[1] = tested on: croton oil-induced inflammation of the ear; assay: croton oil model of topical anti-inflammatory activity, dose response (1% croton oil in tetrahydrofuran); type: in vivo, rat; details: for Treated Ear Wt mg ± s.e.: normal control 98.5, inflamed control 126.1; for Untreated Ear Wt mg ± s.e.: normal control 99.1, inflamed control 118.7; for ED50: 1% croton oil in tetrahydrofuran
Excerpt: 3. A direct comparison of the activity of Compound (12) and Compound (5) in the croton oil model of topical anti-inflammatory activity

[2] = tested on: croton oil-induced inflammation of the rat ear; assay: topical anti-inflammatory model, croton oil irritant solution on rat ears (based on Fregnan & Torsello 1975); type: in vivo, Rats, Charles River Wistar strain, male; details: for reduction of the increase in ear weight / activity (in words): topical
Protocol: 1. Compounds (5) and (6) were tested for anti-inflammatory activity in a topical model based on that described by Fregnan G. B. & Torsello, A. L. (1975) Current Therapeutic Research 17, No. 4, 375-381.
In the test the activity of the novel compounds was compared with that of naproxen. In outline the method is as follows:
Rats, Charles River Wistar strain, .male. 10/group. Weight range 220-260 g.
Irritant solution applied consists of 74% diethyl ether (20% pyridine, 5% dist. H2 O, 1% croton oil. 0.05 ml is placed on each ear, compound being included in the irritant solution on one ear. 6 hours later the ears are removed by cutting along the hairline and weighed.
-ve controls--no irritant solution.
+ve controls--irritant solution on both ears.

[3] = tested on: cantharidin-induced inflammation of the rat ear; assay: anti-inflammatory test induced by the application of cantharidin to the rat ear (Boris & Hurley 1977); type: in vivo, male Wistar rats; details: for Untreated Ear Wt mg ± s.e.: normal control 92.9, inflamed control 146.3; for Treated Ear Wt mg ± s.e.: normal control 95.0, inflamed control 162.0
Protocol: 2. Activity of Compound (5) in an anti-inflammatory test induced by the application of cantharidin to the rat ear
This model developed by Boris A and Hurley M., (1977) J. Invest. Dermatology, 68, 161-164 is claimed to be selective for the anti-inflammatory activity of corticosteroids. Groups of ten male Wistar rats received 0.05 ml per ear of a solution of 400 μg of cantharidin plus or minus compound in tetrahydrofuran. […]

[4] = 2 mg/rat, first experiment (compounds 5, 6, naproxen), -ve control 128.4, +ve control 163.2, 6 hours
[5] = 2 mg/rat, first experiment, -ve control 122.5, +ve control 151.8, 6 hours
[6] = 2 mg/rat, first experiment, 6 hours

SMILES: CC(=O)CCC1CCC2=CC(=O)CCC2C1 (stereo not shown) [Compound (12), 6-(3'-Oxobutyl)-2,3,4,4a,5,6,7,8-octahydronaphthalene-2-one]
- Treated Ear Wt mg ± s.e. ([1]; 1 mg/ear): 116.1 ± 4.6 mg
- Untreated Ear Wt mg ± s.e. ([1]; 1 mg/ear): 112.6 ± 5.5 mg
- Treated Ear % Inhibition ([1]; 1 mg/ear): 36%
- Untreated Ear % Inhibition ([1]; 1 mg/ear): 31%
- Treated Ear Wt mg ± s.e. ([1]; 2 mg/ear): 109.8 ± 3.2 mg
- Untreated Ear Wt mg ± s.e. ([1]; 2 mg/ear): 117.0 ± 2.8 mg
- Treated Ear % Inhibition ([1]; 2 mg/ear): 59%
- Untreated Ear % Inhibition ([1]; 2 mg/ear): 9%
- Treated Ear Wt mg ± s.e. ([1]; 4 mg/ear): 106.3 ± 3.4 mg
- Untreated Ear Wt mg ± s.e. ([1]; 4 mg/ear): 120.6 ± 4.5 mg
- Treated Ear % Inhibition ([1]; 4 mg/ear): 72%
- Untreated Ear % Inhibition ([1]; 4 mg/ear): -10%
- ED50 [1]: 1.6 mg/ear
- potency relative to Compound (5) ([1]; dose response against 1% croton oil in tetrahydrofuran): of the order of two fold more potent than Compound (5)
- Mean weight of Treated Ear ([2]; 4 mg/rat, second experiment (compound 12), -ve control 127.0, +ve control 152.2): 136.9 ± 2.9 m.g.
- Mean weight of Untreated Ear ([2]; 4 mg/rat, second experiment, -ve control 130.1, +ve control 159.4): 148.0 ± 3.9 m.g.
- Treated Ear, % in parentheses (reduction of ear weight increase vs +ve control) ([2]; 4 mg/rat, second experiment): 61%
- Untreated Ear, % in parentheses (reduction of ear weight increase vs +ve control) ([2]; 4 mg/rat, second experiment): 51%

SMILES: CC(=O)CCC1CCC2=CC(=O)CCC2(C)C1 (stereo not shown) [Compound (5), 4a-Methyl-6-(3'-oxobutyl)-2,3,4,4a,5,6,7,8-octahydro-2-naphthalenone]
- Treated Ear Wt mg ± s.e. ([1]; 1 mg/ear): 124.5 ± 4.6 mg
- Untreated Ear Wt mg ± s.e. ([1]; 1 mg/ear): 119.9 ± 4.7 mg
- Treated Ear % Inhibition ([1]; 1 mg/ear): 6%
- Untreated Ear % Inhibition ([1]; 1 mg/ear): -6%
- Treated Ear Wt mg ± s.e. ([1]; 2 mg/ear): 116.4 ± 3.8 mg
- Untreated Ear Wt mg ± s.e. ([1]; 2 mg/ear): 119.9 ± 5.1 mg
- Treated Ear % Inhibition ([1]; 2 mg/ear): 35%
- Untreated Ear % Inhibition ([1]; 2 mg/ear): -6%
- Treated Ear Wt mg ± s.e. ([1]; 4 mg/ear): 108.2 ± 2.8 mg
- Untreated Ear Wt mg ± s.e. ([1]; 4 mg/ear): 115.5 ± 5.6 mg
- Treated Ear % Inhibition ([1]; 4 mg/ear): 65%
- Untreated Ear % Inhibition ([1]; 4 mg/ear): 16%
- ED50 [1]: 2.8 mg/ear
- Mean weight of Treated Ear [2, 4]: 135.4 ± 3.3 m.g.
- Mean weight of Untreated Ear [2, 5]: 169.0 ± 7.4 m.g.
- Treated Ear, % in parentheses (reduction of ear weight increase vs +ve control) [2, 6]: 80%
- Untreated Ear, % in parentheses (reduction of ear weight increase vs +ve control) [2, 6]: -59%
- reduction of the increase in ear weight / activity (in words) [2]: significantly reduced the increase in ear weight brought about by the irritant solution; also recorded: The activity was at the same dose as that of naproxen
- Untreated Ear Wt mg ± s.e. ([3]; 4 mg/ear): 134.3 mg
- Treated Ear Wt mg ± s.e. ([3]; 4 mg/ear): 140.5 mg
- Treated Ear % Inhibition ([3]; 4 mg/ear): 32%
- Untreated Ear % Inhibition ([3]; 4 mg/ear): 22%

SMILES: CC(=O)CCC1CCC2=CC(=O)C=CC2(C)C1 (stereo not shown) [Compound (6)]
- Mean weight of Treated Ear [2, 4]: 134.3 ± 2.3 m.g.
- Mean weight of Untreated Ear [2, 5]: 159.1 ± 5.1 m.g.
- Treated Ear, % in parentheses (reduction of ear weight increase vs +ve control) [2, 6]: 83%
- Untreated Ear, % in parentheses (reduction of ear weight increase vs +ve control) [2, 6]: -25%
- reduction of the increase in ear weight / activity (in words) [2]: appeared equi-active with Compound (5)

SMILES: COc1ccc2cc([C@H](C)C(=O)O)ccc2c1 [Naproxen, reference compound]
- Mean weight of Treated Ear [2, 4]: 139.5 ± 3.0 m.g.
- Mean weight of Untreated Ear [2, 5]: 162.2 ± 4.9 m.g.
- Treated Ear, % in parentheses (reduction of ear weight increase vs +ve control) [2, 6]: 68%
- Untreated Ear, % in parentheses (reduction of ear weight increase vs +ve control) [2, 6]: -35%
- Mean weight of Treated Ear ([2]; 2 mg/rat, second experiment (with compound 12), -ve control 127.0, +ve control 152.2): 141.2 ± 3.7 m.g.
- Mean weight of Untreated Ear ([2]; 2 mg/rat, second experiment, -ve control 130.1, +ve control 159.4): 155.9 ± 4.1 m.g.
- Treated Ear, % in parentheses (reduction of ear weight increase vs +ve control) ([2]; 2 mg/rat, second experiment): 44%
- Untreated Ear, % in parentheses (reduction of ear weight increase vs +ve control) ([2]; 2 mg/rat, second experiment): 12%
- Untreated Ear Wt mg ± s.e. ([3]; 4 mg/ear): 145.0 mg
- Treated Ear Wt mg ± s.e. ([3]; 4 mg/ear): 184.8 mg
- Treated Ear % Inhibition ([3]; 4 mg/ear): -34%
- Untreated Ear % Inhibition ([3]; 4 mg/ear): 2%

SMILES: C[C@]12CCC(=O)C=C1CC[C@@H]1[C@@H]2[C@@H](O)C[C@@]2(C)[C@H]1CC[C@]2(O)C(=O)CO [Hydrocortisone]
- Untreated Ear Wt mg ± s.e. ([3]; 2 mg/ear): 142.0 mg
- Treated Ear Wt mg ± s.e. ([3]; 2 mg/ear): 133.1 mg
- Treated Ear % Inhibition ([3]; 2 mg/ear): 43%
- Untreated Ear % Inhibition ([3]; 2 mg/ear): 8%
